According to ChEMBL document CHEMBL5131493, “Synthesis and evaluation of RNase L-binding 2-aminothiophenes as anticancer agents” (Bioorg Med Chem, 2022):
pIC50: −log10 of the molar value. Activity calls are given as the source filed them. The calls are words filed in the database; no cut-off is given here.

How the values were obtained:
JAR [1] = assay: Antiproliferative activity against human JAR cells assessed as cell growth inhibition incubated for 72 hrs by MTT assay; type: functional, cell-based
K562 = assay: Antiproliferative activity against human K562 cells assessed as cell growth inhibition incubated for 72 hrs by MTT assay; type: functional, cell-based; details: K562, 72 h
JAR [2] = assay: Inhibition of colony formation in human JAR cells assessed as cell reproductive death at upto 5 uM measured after 3 days by Giemsa staining based microscopic analysis; type: functional; details: time 3.0 day
JAR [3] = assay: Induction of apoptosis in human JAR cells assessed as late apoptotic cells at 10 uM measured after 72 hrs by Annexin V-FITC/PI staining based flow cytometry (reference value: 11.67%); type: functional
A549 = assay: Antiproliferative activity against human A549 cells assessed as cell growth inhibition incubated for 72 hrs by MTT assay; type: functional, cell-based; details: A549, 72 h
JAR [4] = assay: Induction of apoptosis in human JAR cells assessed as early apoptotic cells at 10 uM measured after 72 hrs by Annexin V-FITC/PI staining based flow cytometry (reference value: 8.24%); type: functional
JAR [5] = assay: Induction of apoptosis in human JAR cells assessed as necrotic cells at 10 uM measured after 72 hrs by Annexin V-FITC/PI staining based flow cytometry (reference value: 0.22%); type: functional
JAR [6] = assay: Induction of apoptosis in human JAR cells assessed as fold increase in PARP cleavage at 5 to10 uM incubated for 24 hrs by Western blot analysis; type: functional; details: dose 10 µM
JAR [7] = assay: Induction of apoptosis in human JAR cells assessed as live cells at 5 uM measured after 72 hrs by Annexin V-FITC/PI staining based flow cytometry (reference value: 79.87%); type: functional
JAR [8] = assay: Induction of apoptosis in human JAR cells assessed as fold increase in cleaved PARP level at 10 uM incubated for 24 hrs by Western blot analysis; type: functional
JAR [9] = assay: Inhibition of colony formation in human JAR cells measured after 3 days by Giemsa staining based microscopic analysis; type: functional, cell-based; details: time 3.0 day, DDE = dose-dependent effect
JAR [10] = assay: Induction of apoptosis in human JAR cells assessed as necrotic cells at 5 uM measured after 72 hrs by Annexin V-FITC/PI staining based flow cytometry (reference value: 0.22%); type: functional
JAR [11] = assay: Induction of apoptosis in human JAR cells assessed as late apoptotic cells at 5 uM measured after 72 hrs by Annexin V-FITC/PI staining based flow cytometry (reference value: 11.67%); type: functional
JAR [12] = assay: Inhibition of cell migration in human JAR cells at 5 uM measured after 72 hrs by scratch wound healing assay relative to control; type: functional
JAR [13] = assay: Induction of apoptosis in human JAR cells assessed as live cells at 10 uM measured after 72 hrs by Annexin V-FITC/PI staining based flow cytometry (reference value: 79.87%); type: functional
JAR [14] = assay: Antiproliferative activity against human JAR cells assessed as cell growth inhibition at 10 uM incubated for 72 hrs by MTT assay relative to control; type: functional
Homo sapiens = species on record: Homo sapiens; assay: Binding affinity to RNase L (unknown origin) expressed in Escherichia coli BL21 (DE3) assessed as thermal stability by measuring melting temperature at 60 uM incubated for 50 mins by NanoDSF analysis
MCF7 = assay: Antiproliferative activity against human MCF7 cells assessed as cell growth inhibition incubated for 72 hrs by MTT assay; type: functional, cell-based; details: MCF7, 72 h
JAR [15] = assay: Induction of apoptosis in human JAR cells assessed as early apoptotic cells at 5 uM measured after 72 hrs by Annexin V-FITC/PI staining based flow cytometry (reference value: 8.24%); type: functional

pIC50 (K562): 5.80 | pIC50 (A549): 5.10 | ΔTm (Homo sapiens): 0.8 °C | pIC50 (MCF7): 5.28
SMILES: CCOC(=O)C1=C(Nc2ccccc2)S/C(=C\c2ccc(F)c(C#N)c2)C1=O
pIC50 (JAR [1]): 5.82 | inhibition (JAR [2]): Active | Activity (JAR [3]): 55.7% | Activity (JAR [4]): 5.06% | Activity (JAR [5]): 6.8% | fold change (FC) (JAR [6]): >2 | Activity (JAR [7]): 47.62% | fold change (FC) (JAR [8]): >2 | inhibition (JAR [9]): Dde | Activity (JAR [10]): 1.88% | Activity (JAR [11]): 27.47% | inhibition at 5 µM (JAR [12]): 85% | Activity (JAR [13]): 32.48% | inhibition at 10 µM (JAR [14]): 99.9% | Activity (JAR [15]): 23.02%
